In US20240270821A1, “GIP/GLP1/GCG TRI-RECEPTOR AGONISTS AND USES THEREOF” (priority 2023, published 2024):
Read-outs that look alike come from different tables or passages of the source. Starred links: 1 amine or outer side, 2 acyl side, 3 side chain; linkers in the order of their positions; H or OH if unused. Non-standard residues stand in square brackets, D forms with d. Residues, ends and D or L forms follow the SMILES beside them. Groups on a side chain read outwards from the residue. No end group written: not given here. *: point of attachment. C20 diacid = O=C(O)CCCCCCCCCCCCCCCCCCC(=O)*; C18 diacid = O=C(O)CCCCCCCCCCCCCCCCC(=O)*; αMePhe(2-F) = C[C@](N)(Cc1ccccc1F)C(=O)O; γGlu = O=C(O)[C@H](CCC(=O)[*:2])N[*:1]; αMe4Pal = C[C@](N)(Cc1ccncc1)C(=O)O; αMeY = C[C@](N)(Cc1ccc(O)cc1)C(=O)O; 4Pal = N[C@@H](Cc1ccncc1)C(=O)O; αMeL = CC(C)C[C@](C)(N)C(=O)O; αMeS = C[C@](N)(CO)C(=O)O; Orn = NCCC[C@H](N)C(=O)O; AEEA = NCCOCCOCC(=O)O; Aib = CC(C)(N)C(=O)O

Assays:
Assay type in all cases: cell-based
hGIPR [1] = biological target: T1, hGIPR (Homo sapiens, UniProt P48546); experiment: Functional cAMP activity in the presence of 1% HSA; settings: read-out: cAMP Rel EC50, hGIPR
T1 sequence (P48546 22-466): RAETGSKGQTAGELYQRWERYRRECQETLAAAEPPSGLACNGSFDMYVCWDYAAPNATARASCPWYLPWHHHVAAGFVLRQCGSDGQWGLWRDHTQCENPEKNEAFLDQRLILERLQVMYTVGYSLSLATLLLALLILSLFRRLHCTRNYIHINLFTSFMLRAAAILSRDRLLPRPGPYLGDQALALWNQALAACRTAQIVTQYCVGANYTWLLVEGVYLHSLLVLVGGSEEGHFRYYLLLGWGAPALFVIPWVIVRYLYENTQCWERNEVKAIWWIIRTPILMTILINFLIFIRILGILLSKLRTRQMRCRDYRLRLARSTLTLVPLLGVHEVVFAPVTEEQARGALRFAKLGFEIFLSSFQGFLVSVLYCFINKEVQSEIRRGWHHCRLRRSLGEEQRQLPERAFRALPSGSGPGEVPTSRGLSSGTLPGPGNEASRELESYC

hGLP-1R [2] = biological target: T2, hGLP-1R (Homo sapiens, UniProt P43220); experiment: Functional cAMP activity in the presence of 1% HSA; settings: read-out: cAMP Rel EC50, hGLP-1R
human GcgR = human GcgR (Homo sapiens, UniProt P47871); experiment: Functional cAMP activity in the presence of 1% HSA; settings: read-out: cAMP Rel EC50, hGcgR
hGIPR [3] = biological target: T1, hGIPR; experiment: Functional cAMP activation in the presence of 0.1% casein (no HSA); settings: read-out: Relative cAMP EC50, hGIPR;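 as to Relative cAMP EC50, hGIPR: intracellular cAMP rise after 30 min at 37 °C read by HTRF against a standard curve, scaled between buffer alone (0%) and top control ligand concentration (100%), four-parameter fit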;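 as to Relative cAMP EC50, hGLP-1R: intracellular cAMP rise after 30 min at 37 °C read by HTRF, normalized between buffer only (0%) and maximal control ligand (100%), four-parameter variable-slope fit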;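 as to Relative cAMP EC50, hGcgR: intracellular cAMP rise after 30 min at 37 °C, read by HTRF against a cAMP standard curve, scaled from buffer only (0%) to maximal control ligand response (100%)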
hGLP-1R [4] = biological target: T2, hGLP-1R; experiment: as above; settings: read-out: Relative cAMP EC50, hGLP-1R
hGcgR = hGcgR (Homo sapiens, UniProt P47871); experiment: as above; settings: read-out: Relative cAMP EC50, hGcgR;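 also: intracellular cAMP rise after 30 min at 37 °C, read by HTRF against a cAMP standard curve, scaled from buffer only (0%) to maximal control ligand response (100%)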
[5] = in the presence of 0.1% casein (no HSA), geometric mean
[6] = 0.1% casein, no HSA, geometric mean

hGcgR, sequence (P47871 26-477): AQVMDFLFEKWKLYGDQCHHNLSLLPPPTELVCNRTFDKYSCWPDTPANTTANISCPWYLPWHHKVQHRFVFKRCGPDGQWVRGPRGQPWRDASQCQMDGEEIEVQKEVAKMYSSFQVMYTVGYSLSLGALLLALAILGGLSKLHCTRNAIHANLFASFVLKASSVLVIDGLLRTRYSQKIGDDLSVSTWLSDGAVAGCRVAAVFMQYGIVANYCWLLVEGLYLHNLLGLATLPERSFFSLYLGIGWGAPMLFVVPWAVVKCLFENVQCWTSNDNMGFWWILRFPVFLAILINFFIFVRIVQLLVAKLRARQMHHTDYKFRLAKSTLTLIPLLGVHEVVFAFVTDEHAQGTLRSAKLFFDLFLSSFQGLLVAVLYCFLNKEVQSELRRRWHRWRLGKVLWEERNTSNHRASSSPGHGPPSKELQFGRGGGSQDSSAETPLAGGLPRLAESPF
human GcgR, sequence (P47871 26-477): as above
T2 sequence (P43220 24-463): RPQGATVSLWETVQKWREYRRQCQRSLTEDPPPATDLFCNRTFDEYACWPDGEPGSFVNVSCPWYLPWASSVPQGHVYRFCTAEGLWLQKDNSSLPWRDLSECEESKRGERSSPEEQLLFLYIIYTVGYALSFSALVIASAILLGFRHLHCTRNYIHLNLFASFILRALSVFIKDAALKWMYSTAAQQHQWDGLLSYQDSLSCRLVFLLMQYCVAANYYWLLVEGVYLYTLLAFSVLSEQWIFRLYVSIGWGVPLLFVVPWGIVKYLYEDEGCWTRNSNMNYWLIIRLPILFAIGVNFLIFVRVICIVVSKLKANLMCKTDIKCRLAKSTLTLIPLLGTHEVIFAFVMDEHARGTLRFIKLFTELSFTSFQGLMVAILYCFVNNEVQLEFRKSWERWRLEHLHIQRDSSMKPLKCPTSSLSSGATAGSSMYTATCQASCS

Compound | EC50 (hGIPR [1]) | EC50 (hGLP-1R [2]) | EC50 (human GcgR) | EC50 (hGIPR [3]) | EC50 (hGLP-1R [4]) | EC50 (hGcgR) | EC50 (hGIPR [3]; [5]) | EC50 (hGLP-1R [4]; [5]) | EC50 (hGcgR; [5]) | EC50 (hGIPR [3]; [6]) | EC50 (hGLP-1R [4]; [6]) | EC50 (hGcgR; [6])
CC[C@H](C)[C@H](NC(=O)[C@H](Cc1ccccc1)NC(=O)[C@H](C)NC(=O)C(C)(C)NC(=O)[C@H](CCC(N)=O)NC(=O)[C@H](C)NC(=O)[C@H](CCCCNC(=O)COCCOCCNC(=O)CC[C@H](NC(=O)CCCCCCCCCCCCCCCCC(=O)O)C(=O)O)NC(=O)[C@H](CCCCN)NC(=O)[C@H](CC(=O)O)NC(=O)[C@H](CC(C)C)NC(=O)[C@](C)(CC(C)C)NC(=O)[C@@H](NC(=O)[C@H](CO)NC(=O)[C@H](Cc1ccncc1)NC(=O)[C@H](CC(=O)O)NC(=O)[C@H](CO)NC(=O)[C@@H](NC(=O)[C@](C)(Cc1ccccc1F)NC(=O)[C@@H](NC(=O)CNC(=O)[C@H](CCC(N)=O)NC(=O)C(C)(C)NC(=O)[C@@H](N)Cc1ccc(O)cc1)[C@@H](C)O)[C@@H](C)O)[C@@H](C)CC)C(=O)N[C@@H](CCC(=O)O)C(=O)N[C@@H](Cc1ccc(O)cc1)C(=O)N[C@@H](CC(C)C)C(=O)N[C@@H](CCC(=O)O)C(=O)N[C@@H](CCC(=O)O)C(=O)NCC(=O)NCC(=O)N1CCC[C@H]1C(=O)N[C@@H](CO)C(=O)N[C@@H](CO)C(=O)NCC(=O)N[C@@H](C)C(=O)N1CCC[C@H]1C(=O)N1CCC[C@H]1C(=O)N1CCC[C@H]1C(=O)N[C@@H](CCC(=O)O)C(N)=O [Example 445] (H-Y[Aib]QGT[αMePhe(2-F)]TSD[4Pal]SI[αMeL]LDKK([AEEA-γGlu-C18 diacid])AQ[Aib]AFIEYLEEGGPSSGAPPPE-NH2) | 2.41 nM | 23.2 nM | 448 nM | 0.0206 nM | 0.731 nM | 10.1 nM |  |  |  |  |  | 
H-Y[Aib]QGT[αMePhe(2-F)]TSD[4Pal][αMeS]I[αMeL]LD[Orn]K([AEEA-γGlu-C18 diacid])AQ[αMe4Pal]EFI[dE][αMeY]LIEGGPSSGEPPPGGE-NH2 [Example 1145] | 0.848 nM | 39.1 nM | 148 nM |  |  |  | 0.00689 nM | 0.313 nM | 1.07 nM |  |  | 
Y[Aib]QGT[αMePhe(2-F)]TSDYSILLDKK([γGlu-γGlu-C18 diacid])AQ[Aib]AFIEYLEEGGPSSGAPPPSGE-NH2 [Example 435] | 10.3 nM | 33.6 nM | 334 nM | 0.0239 nM | 0.311 nM | 3.01 nM |  |  |  |  |  | 
H-Y[Aib]QGT[αMePhe(2-F)]TSD[4Pal]SI[αMeL]LD[Orn]K([γGlu-γGlu-C18 diacid])AQ[αMe4Pal][Orn]FI[dE][αMeY]LIEGGPSSGEPPPEEG-NH2 [Example 681] | 0.395 nM | 14.2 nM | 104 nM | 0.00663 nM | 0.257 nM | 1.35 nM |  |  |  |  |  | 
H-Y[Aib]QGTFTSD[4Pal]SQ[αMeL]LDKK([AEEA-γGlu-C18 diacid])AQ[αMe4Pal]AFIE[αMe4Pal]LIE[Aib]GPSSGAPPPSGTGE-NH2 [Example 1117] | 8.31 nM | 237 nM | 355 nM |  |  |  | 0.124 nM | 3.51 nM | 4.93 nM |  |  | 
Y[Aib]QGTFTSDFSK[αMeL]LDKK([AEEA-γGlu-C20 diacid])AQ[Aib]AFIQWLLEGGPSSGAPPPSEG-NH2 [Example 39] | 30.5 nM | 260 nM | 1090 nM |  |  |  | 0.299 nM | 2.13 nM | 10.1 nM |  |  | 
CC[C@H](C)[C@H](NC(=O)[C@H](CC(C)C)NC(=O)[C@](C)(Cc1ccc(O)cc1)NC(=O)[C@@H](CCC(=O)O)NC(=O)[C@@H](NC(=O)[C@H](Cc1ccccc1)NC(=O)[C@H](CCCN)NC(=O)C(C)(C)NC(=O)[C@H](CCC(N)=O)NC(=O)[C@H](C)NC(=O)[C@H](CCCCNC(=O)COCCOCCNC(=O)CC[C@H](NC(=O)CCCCCCCCCCCCCCCCC(=O)O)C(=O)O)NC(=O)[C@H](CCCN)NC(=O)[C@H](CC(=O)O)NC(=O)[C@H](CC(C)C)NC(=O)[C@](C)(CC(C)C)NC(=O)[C@@H](NC(=O)[C@](C)(CO)NC(=O)[C@H](Cc1ccncc1)NC(=O)[C@H](CC(=O)O)NC(=O)[C@H](CO)NC(=O)[C@@H](NC(=O)[C@](C)(Cc1ccccc1F)NC(=O)[C@@H](NC(=O)CNC(=O)[C@H](CCC(N)=O)NC(=O)C(C)(C)NC(=O)[C@@H](N)Cc1ccc(O)cc1)[C@@H](C)O)[C@@H](C)O)[C@@H](C)CC)[C@@H](C)CC)C(=O)N[C@@H](CCC(=O)O)C(=O)NCC(=O)NCC(=O)N1CCC[C@H]1C(=O)N[C@@H](CO)C(=O)N[C@@H](CO)C(=O)NCC(=O)N[C@@H](CCC(=O)O)C(=O)N1CCC[C@H]1C(=O)N[C@@H](CCC(=O)O)C(=O)N1CCC[C@H]1C(=O)N[C@@H](CCC(=O)O)C(N)=O [Example 461] (H-Y[Aib]QGT[αMePhe(2-F)]TSD[4Pal][αMeS]I[αMeL]LD[Orn]K([AEEA-γGlu-C18 diacid])AQ[Aib][Orn]FI[dE][αMeY]LIEGGPSSGEPEPE-NH2) | 2.51 nM | 12 nM | 131 nM | 0.0171 nM | 0.194 nM | 1.53 nM |  |  |  |  |  | 
H-Y[Aib]QGTFTSDFS[Orn][αMeL]LDKK([AEEA-γGlu-C18 diacid])AQ[Aib]AFIE[αMeY]LIEGGPSSGAPPPSGS-NH2 [Example 839] | 21.9 nM | 60.6 nM | 1110 nM |  |  |  | 0.221 nM | 0.469 nM | 5.05 nM |  |  | 
H-Y[Aib]QGTFTSDYSI[αMeL]LDKQAAK([AEEA-AEEA-γGlu-C20 diacid])QFVEWLIA[Aib]GPSSGEPPPGEG-NH2 [Example 333] | 36.3 nM | 182 nM | 1410 nM |  |  |  | 0.265 nM | 0.705 nM | 7.09 nM |  |  | 
H-Y[Aib]QGT[αMePhe(2-F)]TSD[4Pal][αMeS]I[αMeL]LD[Orn][Orn]([AEEA-γGlu-C18 diacid])AQ[αMe4Pal]EFI[dE][αMeY]LIEGGPSSGAPPPSGSE-NH2 [Example 1212] | 0.614 nM | 38.2 nM | 230 nM |  |  |  |  |  |  | 0.00702 nM | 0.357 nM | 1.71 nM
H-Y[Aib]QGT[αMePhe(2-F)]TSD[4Pal][αMeS]I[αMeL]LD[Orn]K([γGlu-γGlu-C18 diacid])AQ[Aib][Orn]FI[dE][αMeY]LSEGGPSSGEPPPSGAEE-NH2 [Example 567] | 13.4 nM | 102 nM | 521 nM | 0.165 nM | 1.07 nM | 5.89 nM |  |  |  |  |  | 
H-Y[Aib]QGTFTSD[4Pal]SQ[αMeL]LDKK([AEEA-γGlu-C18 diacid])AQ[αMe4Pal]AFIE[αMe4Pal]LIEGGPSSGAPPPSGS-NH2 [Example 948] | 22.9 nM | 304 nM | 537 nM |  |  |  | 0.17 nM | 2.67 nM | 2.89 nM |  |  | 
H-Y[Aib]QGTFTSD[4Pal]SQ[αMeL]LD[Orn]K([dE-γGlu-C18 diacid])AQ[αMe4Pal]AFIE[αMeY]LIAGGPSSGAPPPSGSEE-NH2 [Example 1074] | 8.49 nM | 101 nM | 1990 nM |  |  |  | 0.0745 nM | 0.794 nM | 22.8 nM |  |  | 
Y[Aib]QGT[αMePhe(2-F)]TSDYSILLDKQAAK([AEEA-γGlu-C20 diacid])EFIEYLIEGGPSSGAPPPSEG-NH2 [Example 340] | 60.4 nM | 246 nM | 647 nM |  |  |  | 0.189 nM | 0.648 nM | 2.02 nM |  |  | 
H-Y[Aib]QGT[αMePhe(2-F)]TSD[4Pal]SI[αMeL]LD[Orn]K([AEEA-γGlu-C18 diacid])AQ[αMe4Pal]EFI[dE][αMeY]LQEGGPSSGAPPPSGS-NH2 [Example 643] | 1.61 nM | 60.1 nM | 1170 nM | 0.0223 nM | 0.741 nM | 16 nM |  |  |  |  |  | 
H-Y[Aib]QGT[αMePhe(2-F)]TSD[4Pal][αMeS]I[αMeL]LD[Orn]K([γGlu-γGlu-C18 diacid])AQ[αMe4Pal]EFI[dE][αMeY]LVEGGPSSGEPPPSGE-NH2 [Example 1161] | 0.733 nM | 35.5 nM | 217 nM |  |  |  | 0.00973 nM | 0.39 nM | 2.19 nM |  |  | 
